Read-outs that look alike come from different tables or passages of the source. Marks after values point to notes of the source that are not given here.
Legend:
human recombinant MAO-A = target: T1, human recombinant MAO-A (Homo sapiens, UniProt P21397); test: Metabolism by recombinant MAO-A; type: in vitro ADME
T1 construct: purchased BD Biosciences, Woburn, Mass
T1 sequence (P21397 1-527): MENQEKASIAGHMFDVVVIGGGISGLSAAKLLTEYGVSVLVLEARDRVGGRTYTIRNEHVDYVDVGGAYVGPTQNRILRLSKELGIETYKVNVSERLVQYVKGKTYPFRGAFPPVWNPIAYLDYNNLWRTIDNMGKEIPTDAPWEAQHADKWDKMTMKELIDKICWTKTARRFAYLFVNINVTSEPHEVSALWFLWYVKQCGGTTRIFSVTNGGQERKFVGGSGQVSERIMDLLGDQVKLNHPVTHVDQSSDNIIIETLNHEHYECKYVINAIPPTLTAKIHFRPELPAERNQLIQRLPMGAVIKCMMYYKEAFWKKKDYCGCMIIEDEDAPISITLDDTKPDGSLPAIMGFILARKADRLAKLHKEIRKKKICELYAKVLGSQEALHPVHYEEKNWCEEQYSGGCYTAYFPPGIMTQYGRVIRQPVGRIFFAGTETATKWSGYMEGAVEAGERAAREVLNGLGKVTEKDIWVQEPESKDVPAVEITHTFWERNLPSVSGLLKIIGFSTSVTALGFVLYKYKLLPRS
Description: Incubation systems (ca. 0.2 mL) of human recombinant MAO-A (1.0 mg/mL) and MAO-B (1.0 mg/mL) (BD Biosciences, Woburn, Mass.) were prepared in triplicated 0.1 M potassium phosphate buffer (pH 7.4) (BD Biosciences, Woburn, Mass.). […] The negative samples were prepared as described above, with the exception that instead of HLM, HLmito, or recombinant enzymes, water was added to the incubation mixture.

[1] = NADPH dependent metabolism, rat liver microsomes; type: in vitro ADME; settings: RLM, from EB-1010 10 μM
Description: Bicifadine (10 μM) was used as the positive control and the formation of the lactam metabolites of bicifadine (M-12) was monitored.

[2] = Phase 1b multiple-dose placebo-controlled safety study, 8 weeks; type: in vivo, human
Source text: This Phase 1b study enrolled 46 male and female subjects.

[3] = 13-week dog toxicity and toxicokinetic study; type: in vivo; settings: for AUC(0-t) / Cmax / Tmax: beagle, dog, in vivo; for AUC(0-t): read-out: AUC0-24; for body weight gain during the study: 20 mg/kg; for mean body weight lower than control: end of study
Description: […] For toxicology assessment, clinical observations, body weight, and food consumption measures were recorded periodically during the study. Ophthalmic examinations were performed and ECGs recorded during Weeks −1 and 12. Clinical pathology evaluations (hematology, serum chemistry, and urinalysis) were performed prior to the initiation of dose administration (Week −1) and prior to the scheduled necropsy (Week 13). At termination, complete necropsies were performed on all dogs and selected organs were weighed. Selected tissues from the control and 20 mg/kg/day group animals and animals euthanized in extremis were examined microscopically. Gross lesions from the 2 and 6 mg/kg/day groups were also examined.

[4] = Acute intravenous or oral mouse bioavailability study; type: in vivo; settings: plasma, fasted male mice, oral 6 mg/kg vs IV 5 mg/kg
Description: Fasted male mice were used in this study. Concentrations were determined using an LC/MS/MS assay following liquid-liquid extraction of plasma samples. Bioavailability was calculated using the mean normalized AUC0-∞ values obtained following oral administration of 6 mg/kg relative to the mean normalized AUC0-∞ at 5 mg/kg IV.

[5] = test system: Salmonella typhimurium and Escherichia coli tester strains; test: Bacterial reverse mutation assay (Ames); type: cell-based; settings: up to 5000 μg/plate, with and without S9
[6] = Rabbit pilot developmental toxicity study; type: in vivo; settings: 30 mg/kg/day, GD 14
Description: On GD 29, a laparohysterectomy was performed on each surviving female.

[7] = 8 weeks, 25 to 75 mg BID, N = 31, Safety Population
[8] = female, po, 2 mg/kg/day, females, 2 mg/kg/day, Day 0
[9] = female, po, 2 mg/kg/day, females, 2 mg/kg/day, Day 86
[10] = female, po, 6 mg/kg/day, females, 6 mg/kg/day, Day 0
[11] = female, po, 6 mg/kg/day, females, 6 mg/kg/day, Day 86
[12] = female, po, 20 mg/kg/day, females, 20 mg/kg/day, Day 0
[13] = female, po, 20 mg/kg/day, females, 20 mg/kg/day, Day 86
[14] = male, po, 2 mg/kg/day, males, 2 mg/kg/day, Day 0
[15] = male, po, 2 mg/kg/day, males, 2 mg/kg/day, Day 86
[16] = male, po, 6 mg/kg/day, males, 6 mg/kg/day, Day 0
[17] = male, po, 6 mg/kg/day, males, 6 mg/kg/day, Day 86
[18] = male, po, 20 mg/kg/day, males, 20 mg/kg/day, Day 0
[19] = male, po, 20 mg/kg/day, males, 20 mg/kg/day, Day 86

O=C1NCC2(c3ccc(Cl)c(Cl)c3)CC12 (stereo not drawn) [EB-10101, 5-(3,4-dichloro-phenyl)-3-aza-bicyclo[3.1.0]hexan-2-one]
MAO-A mediation of formation (human recombinant MAO-A; human recombinant MAO-A): MAO-A mediated
EB-10101 formation rate (mean ± SD) (human recombinant MAO-A; recombinant MAO-A 1 mg/mL, EB-1010 1 μM, 30 min, underestimated (substrate limited)): 7.0 ± 2.7^b pmol/min/mg protein
amount formed with NADPH vs without NADPH [1]: ~5 fold

Clc1ccc([C@]23CNC[C@H]2C3)cc1Cl [amitifadine, (+)-1-(3,4-dichlorophenyl)-3-azabicyclo[3.1.0]hexane]
Abdomibal Pain Upper, % of subjects [2, 7]: 0.0%
Abdomibal Pain Upper, number of subjects with AE [2, 7]: 0
Abdominal Pain Lower, % of subjects [2, 7]: 0.0%
Abdominal Pain Lower, number of subjects with AE [2, 7]: 0
Diarrhea, % of subjects [2, 7]: 6.5%
Diarrhea, number of subjects with AE [2, 7]: 2
Dizziness, % of subjects [2, 7]: 6.5%
Dizziness, number of subjects with AE [2, 7]: 2
Gastroesophageal Reflux Disease, % of subjects [2, 7]: 0.0%
Gastroesophageal Reflux Disease, number of subjects with AE [2, 7]: 0
Headache, % of subjects [2, 7]: 22.6%
Headache, number of subjects with AE [2, 7]: 7
Hyperhidrosis, % of subjects [2, 7]: 3.2%
Hyperhidrosis, number of subjects with AE [2, 7]: 1
Increased Appetite, % of subjects [2, 7]: 3.2%
Increased Appetite, number of subjects with AE [2, 7]: 1
Metrorrhagia, % of subjects [2, 7]: 3.2%
Metrorrhagia, number of subjects with AE [2, 7]: 1
Nausea, % of subjects [2, 7]: 16.1%
Nausea, number of subjects with AE [2, 7]: 5
Pruritus, % of subjects [2, 7]: 3.2%
Pruritus, number of subjects with AE [2, 7]: 1
Rhinitis Allergic, % of subjects [2, 7]: 3.2%
Rhinitis Allergic, number of subjects with AE [2, 7]: 1
Skin Rash, % of subjects [2, 7]: 3.2%
Skin Rash, number of subjects with AE [2, 7]: 1
Subjects with at Least One AE, % [2, 7]: 35.5%
Syncope, % of subjects [2, 7]: 0.0%
Syncope, number of subjects with AE [2, 7]: 0
Toothache, % of subjects [2, 7]: 3.2%
Toothache, number of subjects with AE [2, 7]: 1
Total Number of Subjects with at Least One AE [2, 7]: 11
proportion of subjects with TEAEs ([2]; 25-75 mg BID, 8 weeks): 36%
Completed Subjects, % ([2]; Randomized Population, N = 31): 74.2%
Premature discontinuation: Adverse Event, % ([2]; Randomized Population, N = 31): 3.2%
Premature discontinuation: Allergic Reaction to Study Medication, % ([2]; Randomized Population, N = 31): 3.2%
Premature discontinuation: Lost to Follow Up, % ([2]; Randomized Population, N = 31): 3.2%
Premature discontinuation: Other, % ([2]; Randomized Population, N = 31): 9.7%
Premature discontinuation: Subject Requested Withdrawal, % ([2]; Randomized Population, N = 31): 6.5%
Withdrawal/Early Termination, % ([2]; Randomized Population, N = 31): 25.8%
reduction in mean triglyceride levels ([2]; end of treatment period): ~29%
reduction in mean triglyceride levels ([2]; following 2 weeks of treatment): ~23%
subjects who dropped out due to AEs ([2]; in vivo): 3.2%
AUC(0-t) ([3]; female, oral, 6 mg/kg/day, females, 6 mg/kg/day, Day 86): 15900 ng·h/mL
Cmax [3, 8]: 635 ng/mL
Tmax [3, 8]: 1 h
AUC(0-t) [3, 8]: 1480 ng·h/mL
Cmax [3, 9]: 663 ng/mL
Tmax [3, 9]: 1 h
AUC(0-t) [3, 9]: 2150 ng·h/mL
Cmax [3, 10]: 5120 ng/mL
Tmax [3, 10]: 1 h
AUC(0-t) [3, 10]: 13600 ng·h/mL
Cmax [3, 11]: 4850 ng/mL
Tmax [3, 11]: 1 h
Cmax [3, 12]: 9280 ng/mL
Tmax [3, 12]: 2 h
AUC(0-t) [3, 12]: 63600 ng·h/mL
Cmax [3, 13]: 8430 ng/mL
Tmax [3, 13]: 1 h
AUC(0-t) [3, 13]: 29600 ng·h/mL
body weight gain during the study ([3]; females): 0.4 ± 0.79 kg
mean body weight lower than control ([3]; females, 20 mg/kg/day): 9%
AUC(0-t) ([3]; male, oral, 6 mg/kg/day, males, 6 mg/kg/day, Day 86): 13100 ng·h/mL
Cmax [3, 14]: 507 ng/mL
Tmax [3, 14]: 1 h
AUC(0-t) [3, 14]: 1570 ng·h/mL
Cmax [3, 15]: 753 ng/mL
Tmax [3, 15]: 1 h
AUC(0-t) [3, 15]: 2280 ng·h/mL
Cmax [3, 16]: 4640 ng/mL
Tmax [3, 16]: 1 h
AUC(0-t) [3, 16]: 12800 ng·h/mL
Cmax [3, 17]: 4140 ng/mL
Tmax [3, 17]: 1 h
Cmax [3, 18]: 11400 ng/mL
Tmax [3, 18]: 1 h
AUC(0-t) [3, 18]: 47800 ng·h/mL
Cmax [3, 19]: 7230 ng/mL
Tmax [3, 19]: 1 h
AUC(0-t) [3, 19]: 44000 ng·h/mL
body weight gain during the study ([3]; males): -0.3 ± 0.58 kg
food consumption less than control ([3]; males, 20 mg/kg/day): ≥ 10%
mean body weight lower than control ([3]; males, 20 mg/kg/day): 13%
bioavailability [4]: ~16%
bacterial reverse mutation assay outcome [5]: negative in the bacterial reverse mutation assay
maternal outcome [6]: all females in the 30 mg/kg/day group were euthanized on GD 14

Source: patent publication US20160346249A1 (priority 2012, published 2016)
